According to article PMC9044058 (The Journal of General Physiology, 2022):
“And” between values parts separate entries of the source, which are not always exact repeats. Identical values can stand only once. Like-named read-outs stand apart in the source and are kept apart here.

Key:
[1] = target: T1, WT GltPh (Pyrococcus horikoshii, UniProt O59010, D37H/E368H/K125H/K132H/K223H/K264H/K40H); experiment: ITC of L-Asp and TFB-TBOA binding to WT GltPh
T1 construct: (His)8 behind a thrombin cleavage site (C, cleaved yes); made in house; host or cells: Escherichia coli DH10B
Experimental: (§1) Proteins were immediately concentrated to >5 mg/ml and diluted 2.5-fold to a final concentration of 30–50 µM. When diluted, the sample was supplemented with a final concentration of 1 mM DDM, 58 mM HEPES/KOH, pH 7.4, and an appropriate amount of sodium salt. 350 μl of protein samples was degassed and equilibrated to the temperature of the experiment, and ∼300 μl was loaded into the reaction cell of a small-volume NanoITC (TA Instruments), or in the case of TFB-TBOA experiments, an Affinity Auto ITC (TA Instruments). […] 2 μl of titrant was injected every 5–6 min, at a constant temperature and a stirring rate of 250 rpm (125 rpm for TFB-TBOA experiments). Injection heats measured after protein was saturated with the ligand were used to determine the dilution heats subtracted from the ligand binding heats. Data were analyzed using NanoAnalyze software (TA Instruments) applying either the “independent” or “multiple sites” (referred to as “single-state” and “two-state,” respectively, throughout the text) binding models. […] The fraction of total protein bound is given by the following: [PS]/[P]=n1K1[S]/1+K1[S]+n2K2[S]/1+K2[S], where ni is the apparent number of sites per protein molecule.
For the TFB-TBOA competition experiments, protein was first titrated with TBOA to saturation. Then, the concentration of TFB-TBOA was increased to a final concentration of 150 μM of TFB-TBOA, so that the overflow protein was also saturated.

[2] = tested on: GltPh; design: method as in earlier work; conditions: OFS over IFS; ref Mcilwain et al., 2016; Boudker et al., 2007; Wang and Boudker, 2020; cited from earlier work
[3] = target: P-GltPh (S279E/D405N) (UniProt O59010); experiment: cryo-EM structure; P-GltPh in 0.8 mM DDM, 20 mM HEPES/Tris pH 7.4, 250 mM NaNO3, 1 mM L-Asp; C3 symmetry imposed, then symmetry expansion and focused classification of single protomers; Data S2 (L-Asp present throughout purification) and Data S1 (L-Asp added ~5 s before freezing)
[4] = target: T2, P-GltPh (S279E/D405N) (Pyrococcus horikoshii, UniProt O59010, D37H/D405N/E368H/K125H/K132H/K223H/K264H/K40H/S279E); format: binding; conditions: for n1 / n2: single trials; for % n2 / ΔS1: trials and avg (mean ± SD); for fitted OFS2 fraction: L-Asp ITC, 500 mM sodium salt
T2 construct: (His)8 behind a thrombin cleavage site (C, cleaved yes); made in house; host or cells: Escherichia coli DH10B
Experimental: as §1

[5] = tested on: liposome-reconstituted GltPh; design: method as in Hall et al., 2020; conditions: ref Hall et al., 2020; cited from earlier work
[6] = tested on: D390A mutant; design: method as in Riederer and Valiyaveetil, 2019; conditions: ref Riederer and Valiyaveetil, 2019; cited from earlier work
[7] = tested on: GltPh Y317F; design: method as in Riederer and Valiyaveetil, 2019; conditions: ref Riederer and Valiyaveetil, 2019; cited from earlier work
[8] = target: T3, GltPh (C321A/N378C) (Pyrococcus horikoshii, UniProt O59010, C321A/D37H/E368H/K125H/K132H/K223H/K264H/K40H/N378C); format: biochemical; conditions: 200 mM sodium salt, 1 μM valinomycin, 1 μM L-Asp; triexponential fit; means and SEM
T3 construct: (His)8 behind a thrombin cleavage site (C, cleaved yes); made in house; host or cells: Escherichia coli DH10B
Experimental: Liposomes were prepared from a 3:1 (wt/wt) mixture of E. coli polar lipid extract (Avanti Polar Lipids) and egg phosphatidylcholine in SM-KCl buffer (50 mM HEPES/Tris, pH 7.4, and 200 mM KCl). Liposomes were extruded through 400-nm filters (Whatman Nucleopore) using a syringe extruder (Avanti), and destabilized by the addition of Triton X-100 at 1:2 (wt/wt) detergent-to-lipid ratio. Labeled GltPh was added to the liposome suspension at 1:1,000 (wt/wt) protein-to-lipid ratio at room temperature for 30 min. Detergent was removed by six rounds incubation of Bio-Beads (two rounds at 23°C for 2 h each, one round at 4°C overnight, and three rounds at 4°C for 2 h each). The excess substrate was removed by three rounds of centrifugation for 1 h at 49,192 g at 4°C, removal of the supernatant, addition of 1 ml fresh SM buffer, and three freeze/thaw cycles. Liposomes were concentrated to 50 mg/ml, and ccPEB1a-Y198F labeled with activated LD555P-MAL and LD655-MAL dyes as described ([Ciftci et al., 2020]) was added at a final concentration of 0.6 μM and encapsulated by two freeze–thaw cycles. To remove unencapsulated ccPEB1a-Y198F, 1 ml of SM-KCl buffer was added, and liposomes were centrifuged for 1 h at 49.192 g at 4°C. […]
Buffers were supplemented with an oxygen-scavenging system as above, and the smFRET movies were recorded with 400-ms integration time using 20–40-mW laser power. […]
Traces were analyzed using Spartan software ([Juette et al., 2016]). […] Traces with multiple photobleaching events (indicative of multiple sensors in a liposome) or inconsistent total fluorescence intensity were also discarded. Remaining traces were sorted by either the presence or absence of observable transport events (responding and nonresponding traces, respectively), determined by an increase in FRET efficiency from ∼0.55–0.6 to ∼0.75–0.8.
Responding traces from each video were plotted as time-dependent mean FRET efficiency. Buffer replacement time was determined as described ([Ciftci et al., 2020]). […]

[9] = 500 mM NaCl, 10°C and 15°C, n = 6
[10] = 10°C, 500 mM NaCl, two-state model
[11] = 15°C, 500 mM NaCl, two-state model
[12] = 500 mM Na-gluconate, 15°C, Fit 1
[13] = 500 mM Na-gluconate, 15°C, Fit 2

T2 sequence (O59010 1-417 D37H/K40H/K125H/K132H/K223H/K264H/S279E/E368H/D405N): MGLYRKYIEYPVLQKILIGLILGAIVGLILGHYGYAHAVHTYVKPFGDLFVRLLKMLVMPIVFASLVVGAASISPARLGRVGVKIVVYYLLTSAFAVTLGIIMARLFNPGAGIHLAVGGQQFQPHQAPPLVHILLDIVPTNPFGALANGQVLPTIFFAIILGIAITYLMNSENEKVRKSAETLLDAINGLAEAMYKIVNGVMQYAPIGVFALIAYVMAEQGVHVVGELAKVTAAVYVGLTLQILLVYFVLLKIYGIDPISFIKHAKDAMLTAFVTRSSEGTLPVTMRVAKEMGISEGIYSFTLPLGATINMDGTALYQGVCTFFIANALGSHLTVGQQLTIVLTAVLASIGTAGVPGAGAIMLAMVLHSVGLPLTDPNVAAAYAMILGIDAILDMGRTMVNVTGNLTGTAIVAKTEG
T1 sequence (O59010 1-417 D37H/K40H/K125H/K132H/K223H/K264H/E368H): as the sequence (O59010 1-417 D37H/K40H/K125H/K132H/K223H/K264H/S279E/E368H/D405N) above, with E279S, N405D counted along it
T3 sequence (O59010 1-417 D37H/K40H/K125H/K132H/K223H/K264H/C321A/E368H/N378C): as the sequence (O59010 1-417 D37H/K40H/K125H/K132H/K223H/K264H/S279E/E368H/D405N) above, with E279S, C321A, N378C, N405D counted along it

For N[C@H](C(=O)O)[C@H](OCc1cccc(NC(=O)c2ccc(C(F)(F)F)cc2)c1)C(=O)O [TFB-TBOA], which “shape of ITC binding isotherms” value ([1]; 15°C, 500 mM Na-gluconate, NaCl or NaNO3) is on record?
The value was “bimodal ITC isotherms”.

What about the “preference for OFS” value [2] of the same compound?
The value was 100 fold.

Which stoichiometry N [3] does the source give for “P-GltPh (S279E/D405N) (from UniProt O59010 1-417)” here?
Its stoichiometry N is 3.

Which results are given for N[C@@H](CC(=O)O)C(=O)O [L-Asp, L-aspartate]?
sums of the apparent stoichiometries (n1 and n2 values), average [4, 9]: 0.97 ± 0.26; sums of the apparent stoichiometries (n1 and n2 values), range [4, 9]: 0.74–1.53; n1 [4, 10]: 0.61 and 0.64 and 0.78; n2 [4, 10]: 0.13 and 0.20 and 0.18; % n2 [4, 10]: 18% and 24% and 19%; ΔS1 [4, 10]: 32.2 cal mol^-1 K^-1 and 40.0 cal mol^-1 K^-1 and 31.1 cal mol^-1 K^-1; ΔH ([4]; 15°C, 50 mM NaCl, single-state model): -2.3 kcal/mol; ΔH ([4]; 15°C, 500 mM Na-gluconate, two-state model, first state): -2.3 kcal/mol; ΔH ([4]; 15°C, 500 mM Na-gluconate, two-state model, second state): -5.5 kcal/mol; ΔH ([4]; 15°C, 500 mM NaCl, two-state model, first state): -3.3 kcal/mol; ΔH ([4]; 15°C, 500 mM NaCl, two-state model, second state): -7.1 kcal/mol; n1 [4, 11]: 1.13 and 0.64 and 0.63; n2 [4, 11]: 0.39 and 0.22 and 0.29; % n2 [4, 11]: 26% and 31%; ΔS1 [4, 11]: 29.4 cal mol^-1 K^-1 and 29.2 cal mol^-1 K^-1 and 31.4 cal mol^-1 K^-1; ΔH ([4]; 15°C, 500 mM NaNO3, two-state model, first state): -2.1 kcal/mol; ΔH ([4]; 15°C, 500 mM NaNO3, two-state model, second state): -6.5 kcal/mol; ΔH ([4]; 15°C, 1 M NaCl, two-state model, first state): -3.7 kcal/mol; ΔH ([4]; 15°C, 1 M NaCl, two-state model, second state): -8.7 kcal/mol; n1 [1, 12]: 0.82; n2 [1, 12]: 0.36; ΔH1 [1, 12]: -22.7 kcal/mol; ΔH2 [1, 12]: 39.4 kcal/mol; n1 [1, 13]: 0.37; n2 [1, 13]: 0.89; ΔH1 [1, 13]: -50.0 kcal/mol; ΔH2 [1, 13]: 16.2 kcal/mol; n1 ([1]; 500 mM Na-gluconate, 35°C): 0.16; n2 ([1]; 500 mM Na-gluconate, 35°C): 1.30; ΔH1 ([1]; 500 mM Na-gluconate, 35°C): -24.6 kcal/mol; ΔH2 ([1]; 500 mM Na-gluconate, 35°C): -4.7 kcal/mol; shape of ITC competition isotherms ([1]; GltPh saturated with TFB-TBOA, competed with L-Asp, 15°C): bimodal isotherms; Hill coefficient [5]: 0.69; lower affinity versus GltPh [6]: 1,000 fold; loss of L-Asp affinity [7]: 10 fold

Which results are given for O=[N+]([O-])[O-].[Na+] [NaNO3]?
fitted OFS2 fraction ([4]; 15°C): ~38%; Slow (%) transporter population [8]: 87.3 ± 2.2%

For O=C([O-])[C@H](O)[C@@H](O)[C@H](O)[C@H](O)CO.[Na+] [Na-gluconate, sodium gluconate], which “Slow (%) transporter population” value [8] is on record?
The value was 81.1 ± 3.1%.

Which “fitted OFS2 fraction” value ([4]; 10°C) does the source give for [Cl-].[Na+] [NaCl] here?
Its value is roughly 20%.

What about the “fitted OFS2 fraction” value ([4]; 15°C) of the same compound?
The value was roughly 28%.

And the “Slow (%) transporter population” value [8]?
The value was 79.5 ± 3.4%.
